# Results as given in the supplement of paper PMC10733146.
# What was measured:
# Assay in all cases: viability relative to DMSO control (fraction); higher = less drug effect (more viable cells)
# Conditions in all cases: 48 h
# [1] = system: primary ALL patient cells (S088)
# How it was run: (§1)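 Viability was measured as CellTiter-Glo luminescence relative to the median of 16 inner DMSO wells. Primary mononuclear tumour cells, fresh or cryopreserved, were Ficoll-isolated from blood or bone marrow or taken from processed lymph node. They were seeded at 4 × 10^4 cells per well into 384-well plates holding pre-plated compounds at five concentrations, one well each, and kept in RPMI-1640 with penicillin/streptomycin, L-glutamine and human serum at 37 °C and 5% CO2 for 48 h.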
# [2] = system: primary MCL patient cells (S063)
# How it was run: as §1
# [3] = system: primary DLBCL patient cells (S082)
# How it was run: as §1
# [4] = system: primary AML patient cells (S021)
# How it was run: as §1
# [5] = system: primary DLBCL patient cells (S049)
# How it was run: as §1
# [6] = system: primary AML patient cells (S060)
# How it was run: as §1
# [7] = system: primary AML patient cells (S055)
# How it was run: as §1
# [8] = system: primary AML patient cells (S006)
# How it was run: as §1
# [9] = system: primary AML patient cells (S011)
# How it was run: as §1
# [10] = system: primary MCL patient cells (S041)
# How it was run: as §1
# [11] = system: primary B-PLL patient cells (S016)
# How it was run: as §1
# [12] = system: primary FL patient cells (S087)
# How it was run: as §1
# [13] = system: primary T-PLL patient cells (S008)
# How it was run: as §1
# [14] = system: primary AML patient cells (S081)
# How it was run: as §1
# [15] = system: primary DLBCL patient cells (S076)
# How it was run: as §1
# [16] = system: primary T-NHL patient cells (S058)
# How it was run: as §1
# [17] = system: primary AML patient cells (S009)
# How it was run: as §1
compound,measurement,setting,value
Oc1ccc(/C=C/c2cc(O)cc(O)c2)cc1 [Resveratrol],viability,[1]; 0.024 µM,0.427
same,viability,[1]; 0.12 µM,0.459
same,viability,[1]; 0.6 µM,0.489
same,viability,[1]; 3 µM,0.477
same,viability,[1]; 15 µM,0.426
same,viability,[2]; 0.024 µM,0.862
same,viability,[2]; 0.12 µM,0.858
same,viability,[2]; 0.6 µM,0.863
same,viability,[2]; 3 µM,0.854
same,viability,[2]; 15 µM,0.825
same,viability,[3]; 0.024 µM,0.79
same,viability,[3]; 0.12 µM,0.776
same,viability,[3]; 0.6 µM,0.828
same,viability,[3]; 3 µM,0.871
same,viability,[3]; 15 µM,0.954
same,viability,[4]; 0.024 µM,0.84
same,viability,[4]; 0.12 µM,0.845
same,viability,[4]; 0.6 µM,0.772
same,viability,[4]; 3 µM,0.693
same,viability,[4]; 15 µM,0.55
same,viability,[5]; 0.024 µM,0.849
same,viability,[5]; 0.12 µM,0.846
same,viability,[5]; 0.6 µM,0.826
same,viability,[5]; 3 µM,0.732
same,viability,[5]; 15 µM,0.711
same,viability,[6]; 0.024 µM,0.964
same,viability,[6]; 0.12 µM,0.99
same,viability,[6]; 0.6 µM,0.946
same,viability,[6]; 3 µM,0.918
same,viability,[6]; 15 µM,0.893
same,viability,[7]; 0.024 µM,0.867
same,viability,[7]; 0.12 µM,0.931
same,viability,[7]; 0.6 µM,0.888
same,viability,[7]; 3 µM,0.83
same,viability,[7]; 15 µM,0.851
same,viability,[8]; 0.024 µM,0.862
same,viability,[8]; 0.12 µM,0.866
same,viability,[8]; 0.6 µM,0.845
same,viability,[8]; 3 µM,0.872
same,viability,[8]; 15 µM,0.804
same,viability,[9]; 0.024 µM,0.808
same,viability,[9]; 0.12 µM,0.789
same,viability,[9]; 0.6 µM,0.757
same,viability,[9]; 3 µM,0.747
same,viability,[9]; 15 µM,0.682
same,viability,[10]; 0.024 µM,0.948
same,viability,[10]; 0.12 µM,0.904
same,viability,[10]; 0.6 µM,0.904
same,viability,[10]; 3 µM,0.896
same,viability,[10]; 15 µM,0.77
same,viability,[11]; 0.024 µM,0.852
same,viability,[11]; 0.12 µM,0.85
same,viability,[11]; 0.6 µM,0.864
same,viability,[11]; 3 µM,0.907
same,viability,[11]; 15 µM,0.787
same,viability,[12]; 0.024 µM,0.804
same,viability,[12]; 0.12 µM,0.857
same,viability,[12]; 0.6 µM,0.803
same,viability,[12]; 3 µM,0.877
same,viability,[12]; 15 µM,0.815
same,viability,[13]; 0.024 µM,1
same,viability,[13]; 0.12 µM,1.02
same,viability,[13]; 0.6 µM,0.915
same,viability,[13]; 3 µM,0.966
same,viability,[13]; 15 µM,0.897
same,viability,[14]; 0.024 µM,0.814
same,viability,[14]; 0.12 µM,0.846
same,viability,[14]; 0.6 µM,0.806
same,viability,[14]; 3 µM,0.762
same,viability,[14]; 15 µM,0.794
same,viability,[15]; 0.024 µM,0.961
same,viability,[15]; 0.12 µM,0.963
same,viability,[15]; 0.6 µM,0.955
same,viability,[15]; 3 µM,0.94
same,viability,[15]; 15 µM,0.882
same,viability,[16]; 0.024 µM,0.917
same,viability,[16]; 0.12 µM,0.998
same,viability,[16]; 0.6 µM,0.957
same,viability,[16]; 3 µM,0.895
same,viability,[16]; 15 µM,0.948
same,viability,[17]; 0.024 µM,0.782
same,viability,[17]; 0.12 µM,0.815
same,viability,[17]; 0.6 µM,0.815
same,viability,[17]; 3 µM,0.789
same,viability,[17]; 15 µM,0.683
O=C(c1cc(Cc2n[nH]c(=O)c3ccccc23)ccc1F)N1CCN(C(=O)C2CC2)CC1 [Olaparib],viability,[1]; 0.024 µM,0.579
same,viability,[1]; 0.12 µM,0.775
same,viability,[1]; 0.6 µM,0.788
same,viability,[1]; 3 µM,0.821
same,viability,[1]; 15 µM,0.787
same,viability,[2]; 0.024 µM,0.872
same,viability,[2]; 0.12 µM,0.936
same,viability,[2]; 0.6 µM,0.893
same,viability,[2]; 3 µM,0.933
same,viability,[2]; 15 µM,0.886
same,viability,[3]; 0.024 µM,0.835
same,viability,[3]; 0.12 µM,0.887
same,viability,[3]; 0.6 µM,0.878
same,viability,[3]; 3 µM,0.817
same,viability,[3]; 15 µM,0.718
same,viability,[4]; 0.024 µM,0.878
same,viability,[4]; 0.12 µM,0.846
same,viability,[4]; 0.6 µM,0.895
same,viability,[4]; 3 µM,0.938
same,viability,[4]; 15 µM,0.797
same,viability,[5]; 0.024 µM,0.857
same,viability,[5]; 0.12 µM,0.937
same,viability,[5]; 0.6 µM,0.92
same,viability,[5]; 3 µM,0.894
same,viability,[5]; 15 µM,0.735
same,viability,[6]; 0.024 µM,0.947
same,viability,[6]; 0.12 µM,0.926
same,viability,[6]; 0.6 µM,0.979
same,viability,[6]; 3 µM,0.973
same,viability,[6]; 15 µM,0.987
same,viability,[7]; 0.024 µM,0.937
same,viability,[7]; 0.12 µM,0.899
same,viability,[7]; 0.6 µM,0.91
same,viability,[7]; 3 µM,0.965
same,viability,[7]; 15 µM,0.919
same,viability,[8]; 0.024 µM,0.94
same,viability,[8]; 0.12 µM,0.986
same,viability,[8]; 0.6 µM,1.01
same,viability,[8]; 3 µM,0.884
same,viability,[8]; 15 µM,0.722
same,viability,[9]; 0.024 µM,0.832
same,viability,[9]; 0.12 µM,0.871
same,viability,[9]; 0.6 µM,0.873
same,viability,[9]; 3 µM,0.799
same,viability,[9]; 15 µM,0.603
same,viability,[10]; 0.024 µM,0.845
same,viability,[10]; 0.12 µM,0.889
same,viability,[10]; 0.6 µM,0.93
same,viability,[10]; 3 µM,0.933
same,viability,[10]; 15 µM,0.895
same,viability,[11]; 0.024 µM,0.86
same,viability,[11]; 0.12 µM,0.871
same,viability,[11]; 0.6 µM,0.872
same,viability,[11]; 3 µM,0.8
same,viability,[11]; 15 µM,0.722
same,viability,[12]; 0.024 µM,0.882
same,viability,[12]; 0.12 µM,0.916
same,viability,[12]; 0.6 µM,0.911
same,viability,[12]; 3 µM,0.912
same,viability,[12]; 15 µM,0.845
same,viability,[13]; 0.024 µM,0.945
same,viability,[13]; 0.12 µM,0.962
same,viability,[13]; 0.6 µM,0.957
same,viability,[13]; 3 µM,0.978
same,viability,[13]; 15 µM,0.94
same,viability,[14]; 0.024 µM,0.818
same,viability,[14]; 0.12 µM,0.858
same,viability,[14]; 0.6 µM,0.889
same,viability,[14]; 3 µM,0.884
same,viability,[14]; 15 µM,0.894
same,viability,[15]; 0.024 µM,0.91
same,viability,[15]; 0.12 µM,1.05
same,viability,[15]; 0.6 µM,1.12
same,viability,[15]; 3 µM,1
same,viability,[15]; 15 µM,0.955
same,viability,[16]; 0.024 µM,1.09
same,viability,[16]; 0.12 µM,1.11
same,viability,[16]; 0.6 µM,1.18
same,viability,[16]; 3 µM,1.13
same,viability,[16]; 15 µM,0.999
same,viability,[17]; 0.024 µM,0.977
same,viability,[17]; 0.12 µM,0.987
same,viability,[17]; 0.6 µM,1.02
same,viability,[17]; 3 µM,0.93
same,viability,[17]; 15 µM,0.958
